Measured values as given in PMC10913730, “Antimicrobial activity of a natural compound and analogs against multi-drug-resistant Gram-positive pathogens” (Microbiology Spectrum, 2024).
Values after ≈ are worked out from the molar mass of the structure shown. Where two headings read alike, the source gives them in different places.

Assays:
Streptococcus pyogenes = test: MIC/MBC against Streptococcus pyogenes; type: cell-based; details: for MBC: Streptococcus pyogenes
MRSA isolates = test: MIC/MBC, CLSI broth microdilution, MRSA isolates; type: cell-based, Staphylococcus aureus; details: for change of MIC and MBC with the reduction in pH: six MRSA isolates, pH lowered to 5.5
[1] = tested on: Staphylococcus epidermidis isolates; test: microbe, parasite or virus in culture; type: cell-based
Pseudomonas aeruginosa = test: MIC against Pseudomonas aeruginosa; type: cell-based
MRSA isolate TCH 1516 [2] = test: Resistance acquisition during serial passage; type: cell-based, Staphylococcus aureus; details: serial passage, after 21 days
Experimental: MRSA isolate TCH 1516 was grown to the stationary phase (OD650 = 1.0) in 10 mL of MH broth. […] The second highest drug concentration resulting in bacterial growth (OD650 >1.0) was used as the inoculum after a 1:1,000 dilution for subsequent steps, every 24 hours, for up to 21 days.

MRSA isolate TCH 1516 [3] = test: Single-step resistance development; type: cell-based, Staphylococcus aureus; details: TCH 1516 stationary phase; C59 as low as 2× MIC, vancomycin up to 8× MIC
Experimental: For the single-step study, bacteria were grown to the stationary phase as described above. Bacteria at a concentration of 1E9 CFU were then plated onto C59 and vancomycin-loaded plates containing 1×, 2×, 4×, and 8× MIC concentrations of the therapeutic agents with 1% DMSO. Bacteria were incubated at 37°C for 48 hours, and colony counts were enumerated to calculate the frequency of resistance development, as described in the literature ([45], [46]).

Enterococcus faecalis = test: MIC/MBC against Enterococcus faecalis; type: cell-based
[4] = tested on: human dermal fibroblast (HDF) cells; test: alamarBlue cell viability assay, HDF; details: HDFs, 24-hour incubation, non-linear regression
[5] = pH and Ka of 10-g/L aqueous solutions (pH meter); type: physicochemical; details: 10-g/L solution in distilled, deionized water; for pH of solution: room temperature
[6] = tested on: human bronchial epithelial (16HBE) cells; test: alamarBlue cell viability assay, 16HBE; details: 24-hour incubation, non-linear regression
[7] = tested on: MRSA isolate SAD05 biofilms; type: cell-based, Staphylococcus aureus; details: 72-hour biofilms of SAD05, MBEC assay
[8] = tested on: MRSA isolates SA LL 06 and TCH 1516; test: Kill kinetics against stationary-phase MRSA; type: cell-based, Staphylococcus aureus; details: shaking, 37°C
Experimental: MRSA isolates, TCH 1516 and SA LL 06, were grown to the stationary phase, and the rate of bacterial killing was determined. Frozen bacterial stocks were streaked onto TSA plates and grown overnight. A single colony was selected and incubated overnight in LB broth at 37°C with constant orbital shaking at 200 RPM. Next, bacterial suspension was washed twice with 150 mM sodium chloride and resuspended in MH broth at a concentration of 1.2E9 CFU/mL. […] Glass tubes containing 5 mL of bacteria and drug solutions were grown in a shaking incubator at 37°C. At 0, 4, 8, and 24 hours, bacterial suspensions were collected, serially diluted, and plated onto a blood agar plate. Bacteria were allowed to grow for 24 hours and were enumerated to yield colony-forming units per milliliter.

[9] = tested on: erythrocytes (sheep blood); test: Hemolytic activity against sheep erythrocytes
[10] = Aqueous solubility of compounds reconstituted at 10 mg/mL in water; details: 10 mg/mL in distilled deionized water
[11] = Streptococcus pyogenes (NR1575)
[12] = Staphylococcus aureus, MRSA, pH 5.5, MRSA 0606, pH 5.5
[13] = Staphylococcus aureus, MRSA, pH 5.5, MRSA 0608, pH 5.5
[14] = Staphylococcus aureus, MRSA, pH 5.5, MRSA 0634, pH 5.5
[15] = Staphylococcus aureus, MRSA, pH 5.5, MRSA 0641, pH 5.5
[16] = Staphylococcus aureus, MRSA, pH 5.5, MRSA 0646, pH 5.5
[17] = Staphylococcus aureus, MRSA, pH 5.5, TCH 1516, pH 5.5
[18] = Staphylococcus aureus, MRSA, pH 6.5, MRSA 0606, pH 6.5
[19] = Staphylococcus aureus, MRSA, pH 6.5, MRSA 0608, pH 6.5
[20] = Staphylococcus aureus, MRSA, pH 6.5, MRSA 0634, pH 6.5
[21] = Staphylococcus aureus, MRSA, pH 6.5, MRSA 0641, pH 6.5
[22] = Staphylococcus aureus, MRSA, pH 6.5, MRSA 0646, pH 6.5
[23] = Staphylococcus aureus, MRSA, pH 6.5, TCH 1516, pH 6.5
[24] = Staphylococcus aureus, MRSA, pH 7.4, MRSA 0606, pH 7.4
[25] = Staphylococcus aureus, MRSA, pH 7.4, MRSA 0608, pH 7.4
[26] = Staphylococcus aureus, MRSA, pH 7.4, MRSA 0634, pH 7.4
[27] = Staphylococcus aureus, MRSA, pH 7.4, MRSA 0641, pH 7.4
[28] = Staphylococcus aureus, MRSA, pH 7.4, MRSA 0646, pH 7.4
[29] = Staphylococcus aureus, MRSA, pH 7.4, TCH 1516, pH 7.4
[30] = 21 Staphylococcus epidermidis isolates
[31] = ATCC49532, Enterococcus faecalis (ATCC 49532)
[32] = ATCC51575, Enterococcus faecalis (ATCC 51575)

Oc1c(Cl)cc(Cl)cc1-c1cc(Cl)cc(Cl)c1O [C59, 3,3′,5,5′-tetrachloro-[1,1′-biphenyl]−2,2′-diol]
MIC (Streptococcus pyogenes; Streptococcus pyogenes (NR1571), read-out: MIC): 6 µg/mL (≈ 18.5 µM)
MIC (Streptococcus pyogenes; [11]): 6 µg/mL (≈ 18.5 µM)
MBC (Streptococcus pyogenes; Streptococcus pyogenes (NR1571)): 24 µg/mL (≈ 74.1 µM)
MBC (Streptococcus pyogenes; [11]): 16 µg/mL (≈ 49.4 µM)
MIC90 (MRSA isolates; Staphylococcus aureus, MRSA, 39 evaluated MRSA isolates, CLSI broth microdilution): 2 µg/mL (≈ 6.17 µM)
MIC (MRSA isolates; Staphylococcus aureus, MRSA, SA LL 06, as given for the kill kinetic assay): 2 µg/mL (≈ 6.17 µM)
MIC (MRSA isolates; Staphylococcus aureus, MRSA, TCH 1516, as given for the kill kinetic assay): 2 µg/mL (≈ 6.17 µM)
MBC (MRSA isolates; [12]): 0.5 µg/mL (≈ 1.54 µM)
MIC (MRSA isolates; [12]): 0.5 µg/mL (≈ 1.54 µM)
MBC (MRSA isolates; [13]): 0.5 µg/mL (≈ 1.54 µM)
MIC (MRSA isolates; [13]): 0.5 µg/mL (≈ 1.54 µM)
MBC (MRSA isolates; [14]): 0.5 µg/mL (≈ 1.54 µM)
MIC (MRSA isolates; [14]): 0.5 µg/mL (≈ 1.54 µM)
MBC (MRSA isolates; [15]): 0.5 µg/mL (≈ 1.54 µM)
MIC (MRSA isolates; [15]): 0.5 µg/mL (≈ 1.54 µM)
MBC (MRSA isolates; [16]): 0.5 µg/mL (≈ 1.54 µM)
MIC (MRSA isolates; [16]): 0.5 µg/mL (≈ 1.54 µM)
MBC (MRSA isolates; [17]): 0.5 µg/mL (≈ 1.54 µM)
MIC (MRSA isolates; [17]): 0.5 µg/mL (≈ 1.54 µM)
MBC (MRSA isolates; Staphylococcus aureus, MRSA, pH 5.5, read-out: Average MBC, average of six MRSA isolates, pH 5.5): 0.5 µg/mL (≈ 1.54 µM)
MIC (MRSA isolates; Staphylococcus aureus, MRSA, pH 5.5, read-out: Average MIC, average of six MRSA isolates, pH 5.5): 0.5 µg/mL (≈ 1.54 µM)
MBC (MRSA isolates; [18]): 6 µg/mL (≈ 18.5 µM)
MIC (MRSA isolates; [18]): 1 µg/mL (≈ 3.09 µM)
MBC (MRSA isolates; [19]): 2 µg/mL (≈ 6.17 µM)
MIC (MRSA isolates; [19]): 2 µg/mL (≈ 6.17 µM)
MBC (MRSA isolates; [20]): 4 µg/mL (≈ 12.3 µM)
MIC (MRSA isolates; [20]): 1 µg/mL (≈ 3.09 µM)
MBC (MRSA isolates; [21]): 4 µg/mL (≈ 12.3 µM)
MIC (MRSA isolates; [21]): 1 µg/mL (≈ 3.09 µM)
MBC (MRSA isolates; [22]): 4 µg/mL (≈ 12.3 µM)
MIC (MRSA isolates; [22]): 1 µg/mL (≈ 3.09 µM)
MBC (MRSA isolates; [23]): 4 µg/mL (≈ 12.3 µM)
MIC (MRSA isolates; [23]): 1 µg/mL (≈ 3.09 µM)
MBC (MRSA isolates; Staphylococcus aureus, MRSA, pH 6.5, read-out: Average MBC, average of six MRSA isolates, pH 6.5): 4 µg/mL (≈ 12.3 µM)
MIC (MRSA isolates; Staphylococcus aureus, MRSA, pH 6.5, read-out: Average MIC, average of six MRSA isolates, pH 6.5): 1.2 µg/mL (≈ 3.7 µM)
MBC (MRSA isolates; [24]): 4 µg/mL (≈ 12.3 µM)
MIC (MRSA isolates; [24]): 2 µg/mL (≈ 6.17 µM)
MBC (MRSA isolates; [25]): 6 µg/mL (≈ 18.5 µM)
MIC (MRSA isolates; [25]): 2 µg/mL (≈ 6.17 µM)
MBC (MRSA isolates; [26]): 8 µg/mL (≈ 24.7 µM)
MIC (MRSA isolates; [26]): 2 µg/mL (≈ 6.17 µM)
MBC (MRSA isolates; [27]): 8 µg/mL (≈ 24.7 µM)
MIC (MRSA isolates; [27]): 2 µg/mL (≈ 6.17 µM)
MBC (MRSA isolates; [28]): 4 µg/mL (≈ 12.3 µM)
MIC (MRSA isolates; [28]): 2 µg/mL (≈ 6.17 µM)
MBC (MRSA isolates; [29]): 4 µg/mL (≈ 12.3 µM)
MIC (MRSA isolates; [29]): 2 µg/mL (≈ 6.17 µM)
MBC (MRSA isolates; Staphylococcus aureus, MRSA, pH 7.4, read-out: Average MBC, average of six MRSA isolates, pH 7.4): 5.7 µg/mL (≈ 17.6 µM)
MIC (MRSA isolates; Staphylococcus aureus, MRSA, pH 7.4, read-out: Average MIC, average of six MRSA isolates, pH 7.4): 2 µg/mL (≈ 6.17 µM)
MBC (MRSA isolates; Staphylococcus aureus, MRSA, read-out: MBC90, 39 evaluated MRSA isolates, CLSI broth microdilution): 6 µg/mL (≈ 18.5 µM)
change of MIC and MBC with the reduction in pH (MRSA isolates): decreased as much as fourfold
MBC range [1, 30]: 6 to 12 µg/mL
MIC range [1, 30]: 2 to 4 µg/mL
MIC90 ([1]; Staphylococcus epidermidis): 4 µg/mL (≈ 12.3 µM)
MBC ([1]; Staphylococcus epidermidis, read-out: MBC90): 12 µg/mL (≈ 37 µM)
MIC (Pseudomonas aeruginosa; Pseudomonas aeruginosa (PAM57-15)): > 32 µg/mL
MIC (Pseudomonas aeruginosa; Pseudomonas aeruginosa (PAO1)): > 32 µg/mL
increase in MIC (MRSA isolate TCH 1516 [2]): no change in MIC
growth on drug-loaded plates (MRSA isolate TCH 1516 [3]): No growth
MBC (Enterococcus faecalis; [31]): 16 µg/mL (≈ 49.4 µM)
MIC (Enterococcus faecalis; [31]): 8 µg/mL (≈ 24.7 µM)
MBC (Enterococcus faecalis; [32]): 16 µg/mL (≈ 49.4 µM)
MIC (Enterococcus faecalis; [32]): 8 µg/mL (≈ 24.7 µM)
LD50 [4]: 56.0 µg/mL
acid dissociation constant (Ka) [5]: 6.18 × 10^−19
pH of solution [5]: 9.86
LD50 [6]: 40.2 µg/mL
concentration that completely eradicated biofilms [7]: 16 µg/mL
bacterial killing after 24 hours ([8]; stationary-phase SA LL 06, C59 at 1× and 2× MIC): complete bacterial eradication
bacterial killing after 24 hours ([8]; stationary-phase TCH 1516): did not result in complete bacterial killing
concentrations at which erythrocytes were not lysed ([9]; 1% sheep blood, 1-hour incubation): up to 24 µg/mL
LD50 relative to MIC90 ([9]; higher than MIC90, stated in the hemolysis discussion, cell type not named): 24 fold

CC(=O)Oc1c(Cl)cc(Cl)cc1-c1cc(Cl)cc(Cl)c1OC(C)=O [C59Ac]
aqueous solubility [10]: moderate aqueous solubility
MBC (MRSA isolates; MRSA 0606, pH 7.4): 8 µg/mL (≈ 19.6 µM)
MIC (MRSA isolates; MRSA 0606, pH 7.4): 4 µg/mL (≈ 9.8 µM)
MBC (MRSA isolates; MRSA 0608, pH 7.4): 12 µg/mL (≈ 29.4 µM)
MIC (MRSA isolates; MRSA 0608, pH 7.4): 4 µg/mL (≈ 9.8 µM)
MBC (MRSA isolates; MRSA 0634, pH 7.4): 4 µg/mL (≈ 9.8 µM)
MIC (MRSA isolates; MRSA 0634, pH 7.4): 4 µg/mL (≈ 9.8 µM)
MBC (MRSA isolates; MRSA 0641, pH 7.4): 12 µg/mL (≈ 29.4 µM)
MIC (MRSA isolates; MRSA 0641, pH 7.4): 4 µg/mL (≈ 9.8 µM)
MBC (MRSA isolates; MRSA 0646, pH 7.4): 8 µg/mL (≈ 19.6 µM)
MIC (MRSA isolates; MRSA 0646, pH 7.4): 4 µg/mL (≈ 9.8 µM)
MBC (MRSA isolates; TCH 1516, pH 7.4): 4 µg/mL (≈ 9.8 µM)
MIC (MRSA isolates; TCH 1516, pH 7.4): 4 µg/mL (≈ 9.8 µM)
change of MIC and MBC with the reduction in pH (MRSA isolates): remained unchanged
acid dissociation constant (Ka) [5]: 2.45 × 10^−12
pH of solution [5]: 6.61
